Results on one compound are retold here after publication PMC4633953, “FR171456 is a specific inhibitor of mammalian NSDHL and yeast Erg26p” (Nature Communications, 2015).

“And” between values parts separate entries of the source, which are not always exact repeats. Identical values can stand only once. Some results are limits rather than exact numbers.

One series concerns Candida glabrata NF2905. As to the kind of experiment: Antifungal MIC. The class given is cell-based. The following applies: Nakaseomyces glabratus.
The test system of the next series is serum cholesterol. As to conditions: cited from earlier work.
The test system of the next series is F. solani. The series can be described thus: Combination with clinical antifungal agents (Loewe synergy, growth by OD530). The class given is cell-based. As to conditions: >1 is synergistic.
Series [1] has as its system Aspergillus fumigatus NF4905. The series can be described thus: Antifungal MIC. It is filed as cell-based.
Series [2] relates to panel of 24 receptors/enzymes. The series can be described thus: Pharmacological profiling against a panel of 24 receptors/enzymes. The class given is binding.
For series [3], the system named is Scedosporium apiospermum NF4908. As to the kind of experiment: Antifungal MIC. The class given is cell-based.
For the next series, the system named is R. oryzae. The series can be described thus: Combination with clinical antifungal agents (Loewe synergy). It is filed as cell-based. As to conditions: >1 is synergistic.

Experimental for F. solani: incubated for 24 h in increasing combined doses of FR171456 and Amphotericin B, and growth
assessed by OD530. (a) Normalised growth rates plotted as % inhibition of growth. (b) Loewe excess
heat map showing difference between predicted scores based upon the addition of each agent
alone and the actual values detected plotted as difference in % of inhibition. (c) Loewe isobologram
- a comparison of the doses of each compound needed to achieve 50% inhibition of proliferation.

As for `C=C(CCC(C)C1CCC2C1(C)CC(O)C13CC14C(=O)CC(O)C(C)(C(=O)O)C4C(=O)CC23O)C(C)C` [FR171456, (1R,2aR,3R,5aR,5bS,7aR,8S,9S,11aS,12aR)-1,5b,9-trihydroxy-2a,8-dimethyl-3-((R)-6-methyl-5-methyleneheptan-2-yl)-7,11-dioxohexadecahydrocyclopenta[a]cyclopropa[e]-phenanthrene-8-carboxylic acid], the MIC (commonly the lowest concentration found to suppress growth) in the series on Candida glabrata NF2905 was 16 µg/mL and 36 µM; in series [1] it was 16 µg/mL and 36 µM; in series [3] it was 64 µg/mL and 144 µM. Besides, the “dose giving significant reduction in serum cholesterol” value in the series with serum cholesterol (rabbits treated for 3 weeks ref 14) is 1 µg/kg. The adverse effects entry in the series with serum cholesterol (rabbits, 3 weeks, doses up to 1 mg kg^−1 ref 14) is recorded as “no adverse effects reported”. Moreover, the side effects result with serum cholesterol (rabbits, efficacious doses for 14 days ref 14) is listed as “no reported side effects”. Also, the Loewe synergy score with F. solani (combination of Amphotericin B and FR171456, text prints R. oryzae, Supplementary Fig. 4 F. solani) is given as 2.7; in the series on F. solani (combination with posaconazole), less than 1; in the series with R. oryzae (combination with Amphotericin B), less than 1; in the series on R. oryzae (combination with posaconazole), less than 1. In addition, in series [2], the “specificity in receptor/enzyme panel” value was “only one target with significant binding”.
